Experimental data published in PMC8548588, “Cesium tolerance is enhanced by a chemical which binds to BETA-GLUCOSIDASE 23 in Arabidopsis thaliana” (Scientific Reports, 2021).

Target: T1, AtβGLU23 (BETA-GLUCOSIDASE 23, PYK10) (Arabidopsis thaliana, UniProt Q9SR37)
T1 construct: gene BGLU23; native protein from total protein extract of 11-day-old seedlings
T1 sequence (Q9SR37 25-524): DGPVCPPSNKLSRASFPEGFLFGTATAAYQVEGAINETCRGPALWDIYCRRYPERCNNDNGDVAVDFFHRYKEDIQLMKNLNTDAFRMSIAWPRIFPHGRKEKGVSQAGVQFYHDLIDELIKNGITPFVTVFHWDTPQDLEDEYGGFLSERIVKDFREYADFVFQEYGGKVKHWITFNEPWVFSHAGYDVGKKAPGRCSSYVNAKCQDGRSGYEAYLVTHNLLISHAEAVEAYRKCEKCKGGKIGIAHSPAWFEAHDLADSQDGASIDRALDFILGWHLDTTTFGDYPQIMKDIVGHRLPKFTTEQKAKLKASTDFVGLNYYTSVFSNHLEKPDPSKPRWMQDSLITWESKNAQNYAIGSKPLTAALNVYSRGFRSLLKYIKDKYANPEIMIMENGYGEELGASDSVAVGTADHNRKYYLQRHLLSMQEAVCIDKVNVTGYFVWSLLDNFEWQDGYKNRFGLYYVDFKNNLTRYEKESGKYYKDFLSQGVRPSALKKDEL
Assay: pull-down from plant extract with photo-cross-linked compound beads, SDS-PAGE, LC-MS/MS
Format: binding
Conditions: compound immobilised on photoaffinity-linker-coated agarose beads; 10 mM CsCl, pH 7.6, 4 °C, 18-24 h; control beads without compound

SMILES: Cc1cc(C(=O)Cn2cc(C(F)(F)F)ccc2=O)c(C)n1C(C)C [CsToAcE1, 1-[2-[2,5-Dimethyl-1-(propan-2-yl)-1H-pyrrol-3-yl]-2-oxoethyl]-5-(trifluoromethyl)-1,2-dihydropyridin-2-one]
- pull-down from plant extract with photo-cross-linked compound beads, SDS-PAGE, L: CsToAcE1, binds to AtβGLU23
